Test results reported in US8247211B2, “Glycopeptide antibiotics” (American Cyanamid Company, priority 2001, dated 2012).
≈ marks a conversion by molar mass, not a printed value.

Key:
Test in all cases: In vitro antibacterial evaluation: minimum inhibitory concentration (MIC), broth dilution method
Format in all cases: cell-based
[1] = test system: Escherichia coli
[2] = test system: Streptococcus sp.; settings: 18 hours at 35° C.
In short: (§1)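 First, organisms are seeded at 5×10^5 CFU/mL into Muller-Hinton II […]. Next, antibiotic is applied across 64-0.06 μg/mL by broth dilution (NCCLS M7-A2). Finally, the lowest inhibitory concentration is recorded as MIC.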

[3] = test system: Enterococcus sp.
In short: as §1

[4] = test system: Escherichia coli; remark: listed apart in the source
In short: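 NCCLS M7-A2 broth dilution with Mueller-Hinton II, testing 64-0.06 μg/mL antibiotic against 5×10^5 CFU/mL inocula. Test strains include recent methicillin-, penicillin- or vancomycin-resistant clinical isolates. MIC is the lowest concentration preventing growth.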

[5] = test system: Staphylococcus sp.; settings: 18 hours at 35° C.
In short: as §1

CC(c1ccccc1)C1NC(=O)CNC(=O)C(CO)NC(=O)C(C(O)C2CNC(=N)N2C2OC(CO)C(O)C(O)C2O)NC(=O)C(C(O)C2CNC(=N)N2)NC(=O)C(Cc2ccc(OC3OC(CO)C(OC4OC(COC(=O)NCc5ccccc5)C(O)C(O)C4O)C(O)C3O)cc2)NC1=O (stereo not drawn) [Example 257b, γ-O-[(Benzylamino)carbonyl]-cyclo[glycyl-β-methylphenylalanyl-O-(4-O-hexopyranosylhexopyranosyl)tyrosyl-3-(2-iminoimidazolidin-4-yl)seryl-3-(3-hexopyranosyl-2-iminoimidazolidin-4-yl)serylseryl]]
MIC Escherichia coli (ATCC 25922) [1]: >0.5 µg/mL
MIC Streptococcus agalactiae (GC 4564) ([2]; Streptococcus agalactiae (GC 4564)): 1 µg/mL (≈ 0.7 µM)
MIC Streptococcus pneumoniae (ATCC 6301) ([2]; Streptococcus pneumoniae (ATCC 6301)): 0.25 µg/mL (≈ 0.175 µM)
MIC Streptococcus pneumoniae (GC 1894) ([2]; Streptococcus pneumoniae (GC 1894)): 0.25 µg/mL (≈ 0.175 µM)
MIC Streptococcus pneumoniae (GC 4565) ([2]; Streptococcus pneumoniae (GC 4565)): 0.5 µg/mL (≈ 0.35 µM)
MIC Streptococcus pyogenes (GC 4563) ([2]; Streptococcus pyogenes (GC 4563)): 0.12 µg/mL (≈ 0.084 µM)
MIC Enterococcus avium (GC 4558) ([3]; Enterococcus avium (GC 4558)): 0.5 µg/mL (≈ 0.35 µM)
MIC Enterococcus faecalis (ATCC 29212) ([3]; Enterococcus faecalis (ATCC 29212)): 0.5 µg/mL (≈ 0.35 µM)
MIC Enterococcus faecalis (GC 2242) ([3]; Enterococcus faecalis (GC 2242), 18 hours at 35° C.): 0.5 µg/mL (≈ 0.35 µM)
MIC Enterococcus faecalis (GC 2691) ([3]; Enterococcus faecalis (GC 2691), 18 hours at 35° C.): 0.5 µg/mL (≈ 0.35 µM)
MIC Enterococcus faecalis (GC 3059) ([3]; Enterococcus faecalis (GC 3059), 18 hours at 35° C.): 0.5 µg/mL (≈ 0.35 µM)
MIC Enterococcus faecalis (GC 4552) ([3]; Enterococcus faecalis (GC 4552), 18 hours at 35° C.): >0.5 µg/mL
MIC Enterococcus faecalis (GC 4553) ([3]; Enterococcus faecalis (GC 4553)): 0.5 µg/mL (≈ 0.35 µM)
MIC Enterococcus faecalis (GC 4554) ([3]; Enterococcus faecalis (GC 4554)): >0.5 µg/mL
MIC Enterococcus faecalis (GC 6189) ([3]; Enterococcus faecalis (GC 6189)): 0.5 µg/mL (≈ 0.35 µM)
MIC Enterococcus faecium (GC 2243) ([3]; Enterococcus faecium (GC 2243)): 16 µg/mL (≈ 11.2 µM)
MIC Enterococcus faecium (GC 4556) ([3]; Enterococcus faecium (GC 4556)): 16 µg/mL (≈ 11.2 µM)
MIC Enterococcus faecium (GC 4557) ([3]; Enterococcus faecium (GC 4557)): 2 µg/mL (≈ 1.4 µM)
MIC Escherichia coli (GC 4559) ([4]; Escherichia coli (GC 4559)): >0.5 µg/mL
MIC Escherichia coli (GC 4560) ([4]; Escherichia coli (GC 4560)): 0.5 µg/mL (≈ 0.35 µM)
MIC Coagulase Negative Staphylococcus (GC 4547) ([5]; Coagulase Negative Staphylococcus (GC 4547)): 2 µg/mL (≈ 1.4 µM)
MIC Coagulase Negative Staphylococcus (GC 4548) ([5]; Coagulase Negative Staphylococcus (GC 4548)): 2 µg/mL (≈ 1.4 µM)
MIC Coagulase Negative Staphylococcus (GC 4549) ([5]; Coagulase Negative Staphylococcus (GC 4549)): 2 µg/mL (≈ 1.4 µM)
MIC Coagulase Negative Staphylococcus (GC 4551) ([5]; Coagulase Negative Staphylococcus (GC 4551)): 4 µg/mL (≈ 2.8 µM)
MIC Coagulase Negative Staphylococcus (GC 6257) ([5]; Coagulase Negative Staphylococcus (GC 6257)): 1 µg/mL (≈ 0.7 µM)
MIC Staphylococcus aureus (ATCC 29213) ([5]; Staphylococcus aureus (ATCC 29213)): 0.5 µg/mL (≈ 0.35 µM)
MIC Staphylococcus aureus (GC 1131) ([5]; Staphylococcus aureus (GC 1131)): 0.5 µg/mL (≈ 0.35 µM)
MIC Staphylococcus aureus (GC 3051) ([5]; Staphylococcus aureus (GC 3051)): 0.5 µg/mL (≈ 0.35 µM)
MIC Staphylococcus aureus (GC 3053) ([5]; Staphylococcus aureus (GC 3053)): 0.5 µg/mL (≈ 0.35 µM)
MIC Staphylococcus aureus (GC 4541) ([5]; Staphylococcus aureus (GC 4541)): 0.5 µg/mL (≈ 0.35 µM)
MIC Staphylococcus aureus (GC 4542) ([5]; Staphylococcus aureus (GC 4542)): 0.5 µg/mL (≈ 0.35 µM)
MIC Staphylococcus aureus (GC 4544) ([5]; Staphylococcus aureus (GC 4544)): 0.5 µg/mL (≈ 0.35 µM)
MIC Staphylococcus aureus (GC 4545) ([5]; Staphylococcus aureus (GC 4545)): 0.5 µg/mL (≈ 0.35 µM)
MIC Staphylococcus aureus-SMITH (GC 4543) ([5]; Staphylococcus aureus-SMITH (GC 4543)): 0.5 µg/mL (≈ 0.35 µM)
MIC Staphylococcus haemolyticus (GC 4546) ([5]; Staphylococcus haemolyticus (GC 4546)): 2 µg/mL (≈ 1.4 µM)
